Assay [1] in a line: Inhibition of 20S proteasome.
In a further assay the test system is HT-29. As to the kind of experiment: Cytotoxicity against human HT-29 cells. The format is functional, cell-based.

The values below come from ChEMBL document CHEMBL1221408, “Cylindrocyclophanes with proteasome inhibitory activity from the Cyanobacterium Nostoc sp” (J Nat Prod, 2010).

The term IC50 denotes the concentration that gives 50% inhibition. Higher therefore signals a need for much substance. As for `CCCC[C@H]1CCCC[C@H](C)Cc2cc(O)c(c(O)c2)[C@@H](CCCC)CCCC[C@H](C)Cc2cc(O)c1c(O)c2` [CYLINDROCYCLOPHANE F], the IC50 in assay [1] was greater than 100000 nM. One may read the EC50 as the concentration giving half of the maximal effect. Read a low EC50 as higher potency in that assay. `C[C@H]1CCCC[C@H](CCCCCl)c2c(O)cc(cc2O)[C@H](O)[C@@H](C)CCCC[C@H](CCCC(Cl)Cl)c2c(O)cc(cc2O)[C@@H]1O` [CYLINDROCYCLOPHANE A3]: the IC50 in assay [1] is 2750 nM. Also, the EC50 in the assay on HT-29 is 500 nM. Molecule `C[C@H]1CCCC[C@H](CCCC(Br)Br)c2c(O)cc(cc2O)[C@H](O)[C@@H](C)CCCC[C@H](CCCC(Br)Br)c2c(O)cc(cc2O)[C@@H]1O` [CYLINDROCYCLOPHANE AB4] yielded a concentration for half-maximal inhibition (IC50) in assay [1] of 2230 nM. In addition, a half-maximal effect with HT-29 (EC50) was put at 500 nM. As to `CCCC[C@H]1CCCC[C@H](C)[C@@H](O)c2cc(O)c(c(O)c2)[C@@H](CCCC(Cl)Cl)CCCC[C@H](C)[C@@H](O)c2cc(O)c1c(O)c2` [CYLINDROCYCLOPHANE A2], in assay [1], the IC50 worked out at 2550 nM. In the assay on HT-29, this molecule displayed an EC50 of 1700 nM. The like results for `CCCC[C@H]1CCCC[C@H](C)Cc2cc(O)c(c(O)c2)[C@@H](CCCC(Cl)Cl)CCCC[C@H](C)[C@@H](O)c2cc(O)c1c(O)c2` [CYLINDROCYCLOPHANE C2] were, in that order, 22800 nM and 900 nM. For `C[C@H]1CCCC[C@H](CCCC(Cl)Cl)c2c(O)cc(cc2O)[C@H](O)[C@@H](C)CCCC[C@H](CCCC(Cl)Cl)c2c(O)cc(cc2O)C1` [CYLINDROCYCLOPHANE C4], in that order: 11200 nM and 2800 nM. Regarding `C[C@H]1CCCC[C@H](CCCC(Cl)Cl)c2c(O)cc(cc2O)[C@H](O)[C@@H](C)CCCC[C@H](CCCC(Cl)Cl)c2c(O)cc(cc2O)[C@@H]1O` [CYLINDROCYCLOPHANE A4], it took 3930 nM to reach half-maximal inhibition in assay [1] (IC50). In the assay on HT-29, this molecule had a 50% effective concentration (EC50) of 2000 nM. `C[C@H]1CCCC[C@H](CCCC(Cl)Cl)c2c(O)cc(cc2O)C[C@@H](C)CCCC[C@H](CCCC(Cl)Cl)c2c(O)cc(cc2O)C1` [CYLINDROCYCLOPHANE F4]: the IC50 in assay [1] is 44800 nM. For `CCCC[C@H]1CCCC[C@H](C)[C@@H](O)c2cc(O)c(c(O)c2)[C@@H](CCCC)CCCC[C@H](C)[C@@H](O)c2cc(O)c1c(O)c2` [CYLINDROCYCLOPHANE A], the IC50 in assay [1] stood at 33900 nM.

On to `CCCC[C@H]1CCCC[C@H](C)Cc2cc(O)c(c(O)c2)[C@@H](CCCC)CCCC[C@H](C)[C@@H](O)c2cc(O)c1c(O)c2` [CYLINDROCYCLOPHANE C], for which, in assay [1], the IC50 is 59300 nM. The same measure, in the same setting: then `CCCC[C@H]1CCCC[C@H](C)[C@@H](O)c2cc(O)c(c(O)c2)[C@@H](CCCCCl)CCCC[C@H](C)[C@@H](O)c2cc(O)c1c(O)c2` [CYLINDROCYCLOPHANE A1], with 27600 nM.
